# ChEMBL document CHEMBL1817545, “Synthesis and molecular modeling of 1H-pyrrolopyrimidine-2,4-dione derivatives as ligands for the α1-adrenoceptors” (Bioorg Med Chem, 2011)
# Target: T1, 5-hydroxytryptamine receptor 1A (Rattus norvegicus, UniProt P19327)
# T1 sequence (P19327 whole entry): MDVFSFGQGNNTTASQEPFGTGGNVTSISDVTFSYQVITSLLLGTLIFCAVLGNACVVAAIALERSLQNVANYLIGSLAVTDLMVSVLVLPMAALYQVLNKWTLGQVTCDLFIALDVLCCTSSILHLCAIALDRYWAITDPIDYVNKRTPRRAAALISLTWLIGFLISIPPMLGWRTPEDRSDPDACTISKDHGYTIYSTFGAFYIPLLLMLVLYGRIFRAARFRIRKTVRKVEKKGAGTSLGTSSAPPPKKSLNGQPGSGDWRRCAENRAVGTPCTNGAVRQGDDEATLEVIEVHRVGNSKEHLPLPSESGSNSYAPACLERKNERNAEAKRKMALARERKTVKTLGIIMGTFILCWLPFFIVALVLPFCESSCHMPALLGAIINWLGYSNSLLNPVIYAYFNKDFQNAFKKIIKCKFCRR
# Assay: Displacement of [3H]-8-OH-DPAT from 5HT1A in CRL:CD(SD)BR-COBS rat brain hippocampus after 30 mins by liquid scintillation spectrometry
# Format: tissue-based
row,Ki,Structure (SMILES)
1,4670 nM,COc1ccc(-c2cc3c(=O)n(CCN4CCN(c5ccccc5Cl)CC4)c(=O)n(Cc4ccccc4OC)c3[nH]2)cc1
2,466 nM,COc1ccccc1N1CCN(CCn2c(=O)[nH]c3[nH]c(-c4ccccc4)c(-c4ccccc4)c3c2=O)CC1
3,13.4 nM,COc1ccccc1N1CCN(CCn2c(=O)[nH]c3c(-c4ccccc4)c[nH]c3c2=O)CC1
4,1020 nM,O=c1c2cc(-c3ccccc3)[nH]c2n(Cc2ccccc2)c(=O)n1CCN1CCN(c2ccccc2Cl)CC1
5,220 nM,O=c1[nH]c2cc(-c3ccco3)[nH]c2c(=O)n1CCN1CCN(c2ccccc2Cl)CC1
6,1510 nM,O=c1[nH]c2[nH]c(-c3ccc(Cl)cc3)cc2c(=O)n1CCN1CCN(c2ccccc2Cl)CC1
7,1540 nM,O=c1[nH]c2[nH]c(-c3ccccc3)c(-c3ccccc3)c2c(=O)n1CCN1CCN(c2ccccc2Cl)CC1
8,17.1 nM,COc1ccccc1N1CCN(CCn2c(=O)[nH]c3[nH]c(-c4ccc(Oc5ccccc5)cc4)cc3c2=O)CC1
9,32.6 nM,COc1ccccc1N1CCN(CCn2c(=O)[nH]c3c(-c4ccc(Cl)cc4)c[nH]c3c2=O)CC1
10,3680 nM,COc1ccccc1N1CCN(CCn2c(=O)[nH]c3[nH]c(-c4ccc(-c5ccccc5)cc4)cc3c2=O)CC1
11,4720 nM,O=c1[nH]c2[nH]c(-c3ccc(Oc4ccccc4)cc3)cc2c(=O)n1CCN1CCN(c2ccccc2Cl)CC1
12,184 nM,COc1ccc(-c2cc3c(=O)n(CCN4CCN(c5ccccc5OC)CC4)c(=O)n(Cc4ccccc4OC)c3[nH]2)cc1

row,Structure (SMILES),Ki
1,O=c1[nH]c2[nH]c(-c3ccc(OCc4ccccc4)cc3)cc2c(=O)n1CCN1CCN(c2ccccc2Cl)CC1,> 10000 nM
2,O=c1[nH]c2[nH]c(-c3ccc(-c4ccccc4)cc3)cc2c(=O)n1CCN1CCN(c2ccccc2Cl)CC1,> 10000 nM

# Target: T2, Adrenergic receptor alpha-1 (Rattus norvegicus, UniProt P15823+P23944+P43140)
# T2 sequence (P15823 whole entry): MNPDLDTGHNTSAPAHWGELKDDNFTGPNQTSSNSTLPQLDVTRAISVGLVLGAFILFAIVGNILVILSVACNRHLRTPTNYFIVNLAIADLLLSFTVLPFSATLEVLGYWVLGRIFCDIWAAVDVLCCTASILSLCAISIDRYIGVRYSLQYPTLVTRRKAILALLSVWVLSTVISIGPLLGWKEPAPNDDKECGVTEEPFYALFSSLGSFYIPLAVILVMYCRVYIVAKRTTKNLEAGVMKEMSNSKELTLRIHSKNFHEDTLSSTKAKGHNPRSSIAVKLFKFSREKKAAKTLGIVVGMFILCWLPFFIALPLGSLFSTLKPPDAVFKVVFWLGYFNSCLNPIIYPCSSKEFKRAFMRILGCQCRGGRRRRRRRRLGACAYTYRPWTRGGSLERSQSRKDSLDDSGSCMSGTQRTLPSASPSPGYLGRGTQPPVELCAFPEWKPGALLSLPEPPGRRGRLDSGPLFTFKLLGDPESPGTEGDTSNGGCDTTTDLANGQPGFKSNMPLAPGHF
# T2 sequence (P23944 whole entry): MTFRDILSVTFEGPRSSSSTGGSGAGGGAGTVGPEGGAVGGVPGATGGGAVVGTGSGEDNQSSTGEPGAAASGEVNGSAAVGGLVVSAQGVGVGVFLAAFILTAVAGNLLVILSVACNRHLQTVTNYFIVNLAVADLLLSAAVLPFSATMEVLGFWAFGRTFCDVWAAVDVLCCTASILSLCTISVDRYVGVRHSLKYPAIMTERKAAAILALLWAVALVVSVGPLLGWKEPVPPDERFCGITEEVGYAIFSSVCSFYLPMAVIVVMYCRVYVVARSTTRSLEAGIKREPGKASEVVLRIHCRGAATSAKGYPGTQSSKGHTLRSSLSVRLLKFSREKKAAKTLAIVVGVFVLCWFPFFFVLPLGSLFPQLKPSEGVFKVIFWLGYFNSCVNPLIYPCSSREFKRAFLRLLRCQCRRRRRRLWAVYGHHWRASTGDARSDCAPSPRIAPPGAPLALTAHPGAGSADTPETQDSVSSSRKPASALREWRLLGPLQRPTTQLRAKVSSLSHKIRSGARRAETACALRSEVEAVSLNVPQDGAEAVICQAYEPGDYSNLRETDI
# T2 sequence (P43140 whole entry): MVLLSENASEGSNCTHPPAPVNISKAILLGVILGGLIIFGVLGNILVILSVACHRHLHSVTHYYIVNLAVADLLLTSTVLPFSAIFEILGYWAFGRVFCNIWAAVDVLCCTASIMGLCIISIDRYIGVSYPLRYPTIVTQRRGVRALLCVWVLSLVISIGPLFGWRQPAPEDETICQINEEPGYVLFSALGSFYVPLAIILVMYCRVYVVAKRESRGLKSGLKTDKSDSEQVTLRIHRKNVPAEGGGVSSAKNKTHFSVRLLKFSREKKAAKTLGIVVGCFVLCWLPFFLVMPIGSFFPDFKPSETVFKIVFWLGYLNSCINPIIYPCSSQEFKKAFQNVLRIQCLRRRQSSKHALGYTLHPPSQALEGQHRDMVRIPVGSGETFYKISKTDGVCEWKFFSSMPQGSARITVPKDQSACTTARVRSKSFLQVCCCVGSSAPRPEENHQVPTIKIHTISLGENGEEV
# Assay: Displacement of [3H]prazosin from alpha1-ARs in CRL:CD(SD)BR-COBS rat brain cortex after 30 mins by liquid scintillation spectrometry
row,Ki,Structure (SMILES)
1,89.2 nM,COc1ccc(-c2cc3c(=O)n(CCN4CCN(c5ccccc5Cl)CC4)c(=O)n(Cc4ccccc4OC)c3[nH]2)cc1
2,4.82 nM,COc1ccccc1N1CCN(CCn2c(=O)[nH]c3[nH]c(-c4ccccc4)c(-c4ccccc4)c3c2=O)CC1
3,2.08 nM,COc1ccccc1N1CCN(CCn2c(=O)[nH]c3c(-c4ccccc4)c[nH]c3c2=O)CC1
4,35.41 nM,O=c1c2cc(-c3ccccc3)[nH]c2n(Cc2ccccc2)c(=O)n1CCN1CCN(c2ccccc2Cl)CC1
5,14.17 nM,O=c1[nH]c2cc(-c3ccco3)[nH]c2c(=O)n1CCN1CCN(c2ccccc2Cl)CC1
6,2.64 nM,O=c1[nH]c2[nH]c(-c3ccc(Cl)cc3)cc2c(=O)n1CCN1CCN(c2ccccc2Cl)CC1
7,11.9 nM,O=c1[nH]c2[nH]c(-c3ccccc3)c(-c3ccccc3)c2c(=O)n1CCN1CCN(c2ccccc2Cl)CC1
8,43.71 nM,COc1ccccc1N1CCN(CCn2c(=O)[nH]c3[nH]c(-c4ccc(Oc5ccccc5)cc4)cc3c2=O)CC1
9,3.36 nM,COc1ccccc1N1CCN(CCn2c(=O)[nH]c3c(-c4ccc(Cl)cc4)c[nH]c3c2=O)CC1
10,54.3 nM,COc1ccccc1N1CCN(CCn2c(=O)[nH]c3[nH]c(-c4ccc(-c5ccccc5)cc4)cc3c2=O)CC1
11,125 nM,O=c1[nH]c2[nH]c(-c3ccc(Oc4ccccc4)cc3)cc2c(=O)n1CCN1CCN(c2ccccc2Cl)CC1
12,15.86 nM,COc1ccc(-c2cc3c(=O)n(CCN4CCN(c5ccccc5OC)CC4)c(=O)n(Cc4ccccc4OC)c3[nH]2)cc1

row,Structure (SMILES),Ki
1,O=c1[nH]c2[nH]c(-c3ccc(OCc4ccccc4)cc3)cc2c(=O)n1CCN1CCN(c2ccccc2Cl)CC1,70.91 nM
2,O=c1[nH]c2[nH]c(-c3ccc(-c4ccccc4)cc3)cc2c(=O)n1CCN1CCN(c2ccccc2Cl)CC1,183 nM

# Species on record: Rattus norvegicus
# Assay: Ratio of Ki for CRL:CD(SD)BR-COBS rat brain hippocampus 5HT1A to Ki for CRL:CD(SD)BR-COBS rat brain cortex alpha1-AR
# Format: tissue-based
row,Ratio Ki,Structure (SMILES)
1,52.3,COc1ccc(-c2cc3c(=O)n(CCN4CCN(c5ccccc5Cl)CC4)c(=O)n(Cc4ccccc4OC)c3[nH]2)cc1
2,96.7,COc1ccccc1N1CCN(CCn2c(=O)[nH]c3[nH]c(-c4ccccc4)c(-c4ccccc4)c3c2=O)CC1
3,6.44,COc1ccccc1N1CCN(CCn2c(=O)[nH]c3c(-c4ccccc4)c[nH]c3c2=O)CC1
4,28.8,O=c1c2cc(-c3ccccc3)[nH]c2n(Cc2ccccc2)c(=O)n1CCN1CCN(c2ccccc2Cl)CC1
5,15.5,O=c1[nH]c2cc(-c3ccco3)[nH]c2c(=O)n1CCN1CCN(c2ccccc2Cl)CC1
6,> 500,O=c1[nH]c2[nH]c(-c3ccc(Cl)cc3)cc2c(=O)n1CCN1CCN(c2ccccc2Cl)CC1
7,129,O=c1[nH]c2[nH]c(-c3ccccc3)c(-c3ccccc3)c2c(=O)n1CCN1CCN(c2ccccc2Cl)CC1
8,0.39,COc1ccccc1N1CCN(CCn2c(=O)[nH]c3[nH]c(-c4ccc(Oc5ccccc5)cc4)cc3c2=O)CC1
9,9.7,COc1ccccc1N1CCN(CCn2c(=O)[nH]c3c(-c4ccc(Cl)cc4)c[nH]c3c2=O)CC1
10,67.8,COc1ccccc1N1CCN(CCn2c(=O)[nH]c3[nH]c(-c4ccc(-c5ccccc5)cc4)cc3c2=O)CC1
11,37.8,O=c1[nH]c2[nH]c(-c3ccc(Oc4ccccc4)cc3)cc2c(=O)n1CCN1CCN(c2ccccc2Cl)CC1
12,11.6,COc1ccc(-c2cc3c(=O)n(CCN4CCN(c5ccccc5OC)CC4)c(=O)n(Cc4ccccc4OC)c3[nH]2)cc1

row,Structure (SMILES),Ratio Ki
1,O=c1[nH]c2[nH]c(-c3ccc(OCc4ccccc4)cc3)cc2c(=O)n1CCN1CCN(c2ccccc2Cl)CC1,> 141
2,O=c1[nH]c2[nH]c(-c3ccc(-c4ccccc4)cc3)cc2c(=O)n1CCN1CCN(c2ccccc2Cl)CC1,> 54.6
